Results published in patent US7652015B2, “Kinase inhibitors” (Eli Lilly and Company, priority 2006, dated 2010).

Legend:
[1] = system: TNFα; assay: Effect on intra-articular LPS induced TNFα in rat ankle synovial lavage fluid; type: in vivo; conditions: female Lewis rats, orally, intra-articular LPS 10 μg one hour later, lavage after two hours
Experimental: Intra-articular injection of LPS into rat ankles induces the synthesis of TNFα, which can be measured in synovial lavage fluid. High levels of TNFα are detectable within 2 hours. Since the joint is the site where arthritis develops, this model can rapidly determine whether an orally administered compound has an effect on an inflammatory response in the synovium.
Six female Lewis rats (150-200 g) are place in each treatment group. The animals are given vehicle (1% NaCarboxymethylcellulose-0.25% Tween 80) or test compound
(1 mg/kg, 3 mg/kg, 10 mg/kg, and 30 mg/kg) orally. One hour later, 10 μl LPS (10 μg) is administered intra-articularly into the right ankle of each rat, while the left ankle receives 10 μL of saline. After two hours, each ankle is lavaged with 100 μL of saline. The lavage is collected and stored at −80° C. • Group #1: Vehicle (1% NaCMC-0.25% Tween 80, 1 mL, PO) • Group #2: Test compound (1 mg/kg, 1 mL, PO) • Group #3: Test compound (3 mg/kg, 1 mL, PO) • Group #4: Test compound (10 mg/kg, 1 mL, PO) • Group #5: Test compound (30 mg/kg, 1 mL, PO)
TNFα is measured with a commercially available ELISA kit (R&D, RTA00).

[2] = system: TNFα; assay: Inhibition of TNFα in vitro, LPS/interferon-γ treated mouse peritoneal macrophages, Luminex; type: cell-based; conditions: Peritoneal macrophage, 50 ng/mL LPS and 10 U/mL interferon-γ, 18 hours, read-out: IC50, suppression of TNFα in vitro
Experimental: 1 mL thioglycolate broth (5.0 g yeast extract, 15.0 g casitone or trypticase, 5.0 g dextrose, 2.5 g sodium chloride, 0.75 g L-cystine, 0.5 g sodium thioglycolate, 1.0 mg resazurin, and 0.75 g agar in 1.0 L distilled water) are injected into the peritoneal cavity of Balb/C female mice. At day 4 or 5 post-injection the mice are sacrificed and then injected i.p. with 4 mL RPMI-1640 medium (BioWhittaker) and the peritoneal macrophages are withdrawn by syringe.
Mouse peritoneal macrophages are counted with a hemocytometer and adjusted to 5×10^5 cells/well in 96-well plates in RPMI-1640 medium with 10% fetal bovine serum. 200 μL/well is plated in 96-well plates and the cells allowed to settle and adhere to the bottom of the well for at least 3 hours. The test compound or standard p38 kinase inhibitor is pre-treated using a series of 8 concentrations for 1 hour at 37° C. […]
50 μL of cytokine detection antibody is added and incubated for 60 seconds at room temperature on a shaker protected from light at setting 6 and then for 30 minutes at setting 3.3 washes are performed with the Bio-Plex Wash Buffer. […] Standards and samples are read on a Luminex machine. These intensity readings are then converted to picogram/milliliter units based on a 12-point standard curve created in duplicate using a four-parameter logistic regression method (Bio-Plex Manager 2.0, Bio-Rad), and the IC50 calculated. […]

CS(=O)(=O)O.Cc1ccc(-n2nc(C(C)(C)C)cc2NC(=O)Nc2ccc(N3CCN(C(=O)c4c(F)cccc4F)CC3)nc2C)cc1 [Example 5, 1-(5-tert-Butyl-2-p-tolyl-2H-pyrazol-3-yl)-3-{6-[4-(2,6-difluoro-benzoyl)-piperazin-1-yl]-2-methyl-pyridin-3-yl}-urea methanesulfonate]
TMED50, inhibition of TNFα synthesis in synovial lavage fluid [1]: 3.57 mg/kg
IC50 [2]: 18 nM
